Counter-ions that a name gives are not always drawn.
biological target: human SPR (Homo sapiens (Human), UniProt P35270); assay: Evaluation Example 2: Measurement of human SPR inhibitory activity (seven concentrations, sepiapterin absorbance at 420 nm); type: biochemical; settings: Evaluation Example 2, seven concentrations 0.14 nM to 100 nM, 240 minutes at room temperature, read-out: IC50
Procedure, shortened: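 His-tagged full-length human SPR (1-261) was expressed in E. coli and the tag removed. Enzyme at 150 ng/mL in 100 mM Tris-HCl pH 7.5/0.01% BSA was mixed with compound (0.14–100 nM, seven points), 120 μM sepiapterin and 160 μM NADPH, both as added-solution concentrations. After 240 min at room temperature, remaining sepiapterin was read at 420 nm to give percent inhibition.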

human SPR, sequence (P35270 whole entry): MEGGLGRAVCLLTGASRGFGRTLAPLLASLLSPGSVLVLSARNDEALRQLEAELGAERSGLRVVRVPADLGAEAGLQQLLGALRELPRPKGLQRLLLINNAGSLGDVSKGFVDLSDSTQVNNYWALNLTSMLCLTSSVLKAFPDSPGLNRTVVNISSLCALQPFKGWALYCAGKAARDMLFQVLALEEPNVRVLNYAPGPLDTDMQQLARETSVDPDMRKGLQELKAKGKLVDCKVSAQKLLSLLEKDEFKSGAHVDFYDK

| SMILES | IC50 |
| --- | --- |
| CC(C)(C)Cn1c(=O)c(C(=O)NC2CC2)c(O)n2nc3c(c12)CCOC(=O)N3 [Synthesis Example 401, N-Cyclopropyl-9-hydroxy-6-neopentyl-2,7-dioxo-1,2,4,5,6,7-hexahydropyrimido[1′,2′:1,5]pyrazolo[3,4-d][1,3]oxazepine-8-carboxamide] | 560 pM |
| CC(C)(C)Cn1c(=O)c(C(=O)NC2CC2)c(O)n2nc3c(c12)CC(=O)N3 [Synthesis Example 402, N-Cyclopropyl-7-hydroxy-4-neopentyl-2,5-dioxo-2,3,4,5-tetrahydro-1H-pyrrolo[2′,3′:3,4]pyrazolo[1,5-a]pyrimidine-6-carboxamide] | 630 pM |
| CC(C)(C)Cn1c(=O)c(C(=O)NC2CC2)c(O)n2nc3c(c12)CCC(=O)N3 [Synthesis Example 403, N-Cyclopropyl-4-hydroxy-1-neopentyl-2,8-dioxo-1,2,7,8,9,10-hexahydropyrido[2′,3′:3,4]pyrazolo[1,5-a]pyrimidine-3-carboxamide] | 610 pM |
| CC(C)Cn1c(=O)c(C(=O)NC2CC2)c(O)n2nc3c(c12)CCC(=O)N3 [Synthesis Example 404, N-Cyclopropyl-4-hydroxy-1-isobutyl-2,8-dioxo-1,2,7,8,9,10-hexahydropyrido[2′,3′:3,4]pyrazolo[1,5-a]pyrimidine-3-carboxamide] | 630 pM |
| CC(C)(C)Cn1c(=O)c(C(=O)NC2CC2)c(O)n2nc3c(c12)CN(C1CCOCC1)C(=O)N3 [Synthesis Example 405, N-Cyclopropyl-8-hydroxy-5-neopentyl-2,6-dioxo-3-(tetrahydro-2H-pyran-4-yl)-1,2,3,4,5,6-hexahydropyrazolo[1,5-a:3,4-d′]dipyrimidine-7-carboxamide] | 770 pM |
| CN1Cc2c(nn3c(O)c(C(=O)NC4CC4)c(=O)n(CC(C)(C)C)c23)NC1=O [Synthesis Example 406, N-Cyclopropyl-8-hydroxy-3-methyl-5-neopentyl-2,6-dioxo-1,2,3,4,5,6-hexahydropyrazolo[1,5-a:3,4-d′]dipyrimidine-7-carboxamide] | 930 pM |
| CC(C)(C)Cn1c(=O)c(C(=O)NC2CC2)c(O)n2nc3c(c12)CN(C1CCC(F)(F)CC1)C(=O)N3 [Synthesis Example 407, N-Cyclopropyl-3-(4,4-difluorocyclohexyl)-8-hydroxy-5-neopentyl-2,6-dioxo-1,2,3,4,5,6-hexahydropyrazolo[1,5-a:3,4-d′]dipyrimidine-7-carboxamide] | 1230 pM |
| CC(C)(C)Cn1c(=O)c(C(=O)NC2CC2)c(O)n2nc3c(c12)CN(C1CC1)C(=O)N3 [Synthesis Example 408, N,3-Dicyclopropyl-8-hydroxy-5-neopentyl-2,6-dioxo-1,2,3,4,5,6-hexahydropyrazolo[1,5-a:3,4-d′]dipyrimidine-7-carboxamide] | 830 pM |
| CC(C)(C)Cn1c(=O)c(C(=O)NC2CC2)c(O)n2nc3c(c12)CN(CC1CCOCC1)C(=O)N3 [Synthesis Example 409, N-Cyclopropyl-8-hydroxy-5-neopentyl-2,6-dioxo-3-((tetrahydro-2H-pyran-4-yl)methyl)-1,2,3,4,5,6-hexahydropyrazolo[1,5-a:3,4-d′]dipyrimidine-7-carboxamide] | 750 pM |
| CC(C)(C)Cn1c(=O)c(C(=O)NC2CC2)c(O)n2nc3c(c12)CN(C1CC(F)(F)C1)C(=O)N3 [Synthesis Example 410, N-Cyclopropyl-3-(3,3-difluorocyclobutyl)-8-hydroxy-5-neopentyl-2,6-dioxo-1,2,3,4,5,6-hexahydropyrazolo[1,5-a:3,4-d′]dipyrimidine-7-carboxamide] | 1500 pM |
| CC(C)(C)Cn1c(=O)c(C(=O)NC2CC2)c(O)n2nc(N)c(/C=C/C(=O)N3CCOCC3)c12 [Synthesis Example 411, (E)-2-Amino-N-cyclopropyl-7-hydroxy-3-(3-morpholino-3-oxoprop-1-en-1-yl)-4-neopentyl-5-oxo-4,5-dihydropyrazolo[1,5-a]pyrimidine-6-carboxamide] | 650 pM |
| CCOC(=O)/C=C/c1c(NC(=O)OC(C)(C)C)nn2c(O)c(C(=O)NC3CC3)c(=O)n(CC(C)C)c12 [Synthesis Example 412, Ethyl (E)-3-(2-((tert-butoxycarbonyl)amino)-6-(cyclopropylcarbamoyl)-7-hydroxy-4-isobutyl-5-oxo-4,5-dihydropyrazolo[1,5-a]pyrimidin-3-yl)acrylate] | 1850 pM |
| CC(C)Cn1c(=O)c(C(=O)NC2CC2)c(O)n2nc(NC(=O)OC(C)(C)C)c(/C=C/C(=O)N3CCC(F)(F)CC3)c12 [Synthesis Example 413, Tert-butyl (E)-(6-(cyclopropylcarbamoyl)-3-(3-(4,4-difluoropiperidin-1-yl)-3-oxoprop-1-en-1-yl)-7-hydroxy-4-isobutyl-5-oxo-4,5-dihydropyrazolo[1,5-a]pyrimidin-2-yl)carbamate] | 1320 pM |
| CC(C)Cn1c(=O)c(C(=O)NC2CC2)c(O)n2nc(N)c(/C=C/C(=O)N3CCC(F)(F)CC3)c12 [Synthesis Example 414, (E)-2-Amino-N-cyclopropyl-3-(3-(4,4-difluoropiperidin-1-yl)-3-oxoprop-1-en-1-yl)-7-hydroxy-4-isobutyl-5-oxo-4,5-dihydropyrazolo[1,5-a]pyrimidine-6-carboxamide hydrochloride] | 700 pM |
| CC(C)Cn1c(=O)c(C(=O)NC2CC2)c(O)n2nc(NC(=O)OC(C)(C)C)c(/C=C/C(=O)N3CCOCC3)c12 [Synthesis Example 415, Tert-butyl (E)-(6-(cyclopropylcarbamoyl)-7-hydroxy-4-isobutyl-3-(3-morpholino-3-oxoprop-1-en-1-yl)-5-oxo-4,5-dihydropyrazolo[1,5-a]pyrimidin-2-yl)carbamate] | 740 pM |
| CC(C)Cn1c(=O)c(C(=O)NC2CC2)c(O)n2nc(N)c(/C=C/C(=O)N3CCOCC3)c12 [Synthesis Example 416, (E)-2-Amino-N-cyclopropyl-7-hydroxy-4-isobutyl-3-(3-morpholino-3-oxoprop-1-en-1-yl)-5-oxo-4,5-dihydropyrazolo[1,5-a]pyrimidine-6-carboxamide] | 590 pM |
| CC(C)Cn1c(=O)c(C(=O)NC2CC2)c(O)n2nc(N)c(/C=C/C(=O)N3CCOC[C@@H]3C)c12 [Synthesis Example 417, (S,E)-2-Amino-N-cyclopropyl-7-hydroxy-4-isobutyl-3-(3-(3-methylmorpholino)-3-oxoprop-1-en-1-yl)-5-oxo-4,5-dihydropyrazolo[1,5-a]pyrimidine-6-carboxamide hydrochloride] | 590 pM |
| CC(C)Cn1c(=O)c(C(=O)NC2CC2)c(O)n2nc(N)c(/C=C/C(=O)N3CCOC[C@H]3C)c12 [Synthesis Example 418, (R,E)-2-Amino-N-cyclopropyl-7-hydroxy-4-isobutyl-3-(3-(3-methylmorpholino)-3-oxoprop-1-en-1-yl)-5-oxo-4,5-dihydropyrazolo[1,5-a]pyrimidine-6-carboxamide hydrochloride] | 610 pM |
| Nc1nn2c(O)c(C(=O)NC3CC3)c(=O)n(CC3CC3)c2c1/C=C/C(=O)N1CCOCC1 [Synthesis Example 419, (E)-2-Amino-N-cyclopropyl-4-(cyclopropylmethyl)-7-hydroxy-3-(3-morpholino-3-oxoprop-1-en-1-yl)-5-oxo-4,5-dihydropyrazolo[1,5-a]pyrimidine-6-carboxamide hydrochloride] | 830 pM |
| Nc1nn2c(O)c(C(=O)NC3CC3)c(=O)n(CC3CC3)c2c1/C=C/C(=O)N1CCC(F)(F)CC1 [Synthesis Example 420, (E)-2-Amino-N-cyclopropyl-4-(cyclopropylmethyl)-3-(3-(4,4-difluoropiperidin-1-yl)-3-oxoprop-1-en-1-yl)-7-hydroxy-5-oxo-4,5-dihydropyrazolo[1,5-a]pyrimidine-6-carboxamide hydrochloride] | 750 pM |
| CC(C)Cn1c(=O)c(C(=O)N[C@@H](C)C(F)(F)F)c(O)n2nc(N)c(/C=C/C(=O)N3CCC(F)(F)CC3)c12 [Synthesis Example 421, (S,E)-2-Amino-3-(3-(4,4-difluoropiperidin-1-yl)-3-oxoprop-1-en-1-yl)-7-hydroxy-4-isobutyl-5-oxo-N-(1,1,1-trifluoropropan-2-yl)-4,5-dihydropyrazolo[1,5-a]pyrimidine-6-carboxamide hydrochloride] | 770 pM |
| CC(C)Cn1c(=O)c(C(=O)NC2CC2)c(O)n2nc(N)c(/C=C/C(=O)N3[C@@H](C)COC[C@@H]3C)c12 [Synthesis Example 422, 2-Amino-N-cyclopropyl-3-((E)-3-((3S,5S)-3,5-dimethylmorpholino)-3-oxoprop-1-en-1-yl)-7-hydroxy-4-isobutyl-5-oxo-4,5-dihydropyrazolo[1,5-a]pyrimidine-6-carboxamide] | 750 pM |
| CC(C)Cn1c(=O)c(C(=O)NC2CC2)c(O)n2nc(N)c(/C=C/C(=O)N3C4CCCC3COC4)c12 [Synthesis Example 423, (E)-3-(3-(3-Oxa-9-azabicyclo[3.3.1]nonan-9-yl)-3-oxoprop-1-en-1-yl)-2-amino-N-cyclopropyl-7-hydroxy-4-isobutyl-5-oxo-4,5-dihydropyrazolo[1,5-a]pyrimidine-6-carboxamide hydrochloride] | 710 pM |
| CC(C)(C)Cn1c(=O)c(C(=O)NC2CC2)c(O)n2nc(NC(N)=O)c(/C=C/C(=O)N3CCOCC3)c12 [Synthesis Example 424, (E)-N-Cyclopropyl-7-hydroxy-3-(3-morpholino-3-oxoprop-1-en-1-yl)-4-neopentyl-5-oxo-2-ureido-4,5-dihydropyrazolo[1,5-a]pyrimidine-6-carboxamide] | 670 pM |
| COC(=O)Nc1nn2c(O)c(C(=O)NC3CC3)c(=O)n(CC(C)C)c2c1/C=C/C(=O)N1CCOCC1 [Synthesis Example 425, Methyl (E)-(6-(cyclopropylcarbamoyl)-7-hydroxy-4-isobutyl-3-(3-morpholino-3-oxoprop-1-en-1-yl)-5-oxo-4,5-dihydropyrazolo[1,5-a]pyrimidin-2-yl)carbamate] | 770 pM |

Reference: patent publication US20240092784A1, “CONDENSED HETEROCYCLIC COMPOUND” (NISSAN CHEMICAL CORPORATION, priority 2020, published 2024)
